From patent US10647737B2, “Sulfated-glycolipids as adjuvants for vaccines” (National Research Council of Canada, priority 2014, dated 2020) come the findings set out here.

SMILES strings stand for the structures. Where “and” joins values, the source holds several entries; their conditions need not be identical. Equal values may be shown once.

A short description of data set [1]: Antigen loading of archaeosomes (SDS PAGE / SDS Lowry). Conditions: OVA antigen entrapped in archaeosomes. The class given is physicochemical. As to the method:
(§1) In one method, archaeosomes were formed by hydrating 20-30 mg dried lipid at 40° C. in 2 ml PBS buffer (10 mM sodium phosphate, 160 mM NaCl, pH 7.1) with the protein antigen OVA dissolved at 10 mg/ml. Vesicle size was reduced to about 100-150 nm diameter by brief sonication in a sonic bath (Fisher Scientific), and the portion of OVA antigen not entrapped was removed by centrifugation from 7 ml PBS followed by 2 washes (200,000×g max for 30 min). Vesicle pellets were resuspended in 2-2.5 ml PBS and filter sterilized through 0.45 μm Millipore filters. Sterile conditions and pyrogen-free water was used throughout.
In another method, lipids dissolved in t-butanol/water received antigen dissolved in an equal volume of water. The sample was then lyophilized to a powder and rehydrated in PBS buffer. […]
Quantification of antigen loading was conducted by separating protein(s) from lipids using SDS polyacrylamide gel electrophoresis as described (Sprott, G. D., Patel, G. B., and Krishnan, L. 2003. Methods Enzymol, 373:155-172). Loading of synthetic archaeosomes with antigens was also determined using SDS Lowry with standard curves prepared for the respective antigen. […] Average diameters based on Intensity and Zeta potentials were measured using a Malvern Nano Zetasizer with a He/Ne laser (Spectra Research Corp., Ontario, Canada).

Another data set has as its system anti OVA antibody (IgG). Put plainly: Anti-OVA antibody titre in sera of immunized mice (Elisa). It counts as in vivo. Conditions: OVA-archaeosomes, immunized day 0 and 21; FIG. 13. The protocol: C57BL6 female mice ([…]) were immunized subcutaneously with 0.1 ml vaccines containing the equivalent of 20 μg OVA, often entrapped in archaeosomes of various compositions, A booster consisting of the same vaccine and route was given most often on week 3. In experiments addressing ability of archaeosomes to evoke immune response to a cancer self-antigen, TRP or Gp100 antigen in archaeosomes was administered at a dose of 15 μg antigen per injection and booster given on week 3.5 and week 8.5. In some experiments an additional third injection was given (˜95 days after first dose). All protocols and SOPs were approved by the NRC Animal Care Committee and conducted within the guidelines of the Canadian Council on Animal Care.
As a measure of CD4^+ T cell response, antibody raised to the antigen in the vaccine and present in the sera of mice (5-6 mice/group), was quantified by Elisa according to a previous description (Krishnan, L., Dicaire, C. J., Patel, G. B., and Sprott, G. D. 2000. Infect, Immun. 68:54-63). The CD8^+ T cell response was quantified by sacrificing 2 mice/group and pooling their splenic cells. These were assayed in triplicate for antigen-specific responses by Elispot and CTL methods (Krishnan, L., Sad, S., Patel, G. B., and Sprott, G. D. 2003. Cancer Res. 63:2526-2534).

Data set [2] can be described thus: Archaeosome formation by hydration of dried lipid. It counts as physicochemical. The settings on record: lipid hydrated in PBS with antigen. The protocol:
as §1
In another method, lipids dissolved in t-butanol/water received antigen dissolved in an equal volume of water. The sample was then lyophilized to a powder and rehydrated in PBS buffer. Size was reduced, antigen not entrapped was removed, and filtration conducted as above.

In another data set the test system is EL-4+TRP target cells. Put plainly: CD8+ T cell response (ELISPOT, CTL) to cancer self-antigen TRP / Gp100 delivered in archaeosomes. It counts as in vivo, mice. The settings on record: TRP-liposomes; 15.5 weeks; FIG. 12. As to the method: (§2) C57BL6 female mice ([…]) were immunized subcutaneously with 0.1 ml vaccines containing the equivalent of 20 μg OVA, often entrapped in archaeosomes of various compositions, A booster consisting of the same vaccine and route was given most often on week 3. In experiments addressing ability of archaeosomes to evoke immune response to a cancer self-antigen, TRP or Gp100 antigen in archaeosomes was administered at a dose of 15 μg antigen per injection and booster given on week 3.5 and week 8.5. In some experiments an additional third injection was given (˜95 days after first dose). […]
(§3) As a measure of CD4^+ T cell response, antibody raised to the antigen in the vaccine and present in the sera of mice (5-6 mice/group), was quantified by Elisa according to a previous description (Krishnan, L., Dicaire, C. J., Patel, G. B., and Sprott, G. D. 2000. Infect, Immun. 68:54-63). The CD8^+ T cell response was quantified by sacrificing 2 mice/group and pooling their splenic cells. […]
Peptides HLA.A2/H-2K^b TRP-2180-188 (SVYDFFVWL), CTL epitope from tyrosinase related protein-2 and Gp10025-35 (KVPRNQDWL) from human melanoma antigen Gp100 were synthesized. […] Quantification was done using a calibration curve based on known amounts of each of the respective peptides. […]

Data set [3] is described as follows: Average diameter of archaeosomes (Malvern Nano Zetasizer). It counts as physicochemical. The protocol: as §1
Quantification of antigen loading was conducted by separating protein(s) from lipids using SDS polyacrylamide gel electrophoresis as described (Sprott, G. D., Patel, G. B., and Krishnan, L. 2003. Methods Enzymol, 373:155-172). Loading of synthetic archaeosomes with antigens was also determined using SDS Lowry with standard curves prepared for the respective antigen. Loading was based on μg protein/mg salt corrected dry weight of lipid. Average diameters based on Intensity and Zeta potentials were measured using a Malvern Nano Zetasizer with a He/Ne laser (Spectra Research Corp., Ontario, Canada).

The next data set relates to CD8^+ T cell response. Put plainly: Elispot of IFN-γ-secreting splenic cells of mice immunized with OVA-archaeosomes. The class given is in vivo. The settings on record: OVA-loaded archaeosomes s.c. at 0 and 3 weeks; 6 weeks post first injection; FIG. 2. The protocol:
as §2, §3
In a first example, adjuvant activity of the natural sulfated glycolipid purified from Haloferax volcanii (6′-HSO3-D-Manp-α-1,2-D-Glcp-α-1,1-archaeol) was compared to a synthetic 6′-S-lactosylarchaeol, not found in nature. […] CD8^+ T cell responses measured by Elispot splenic cell assays. […]

On to `CC(C)CCCC(C)CCCC(C)CCCC(C)CCOCC(CO[C@@H]1OC(CO)[C@@H](O[C@@H]2OC(COS(=O)(=O)[O+]=[Na])[C@H](O)[C@H](O)C2O)[C@H](O)C1O)OCCC(C)CCCC(C)CCCC(C)CCCC(C)C` (stereo partly drawn) [SLA, (2R)-2,3-Bis[(3R,7R,11R)-3,7,11,15-tetramethylhexadecyloxy]propan-1-yl 4-O-(6-O-sulfo-β-D-galactopyranosyl)-β-D-glucopyranoside], for which the “Loading (μg antigen/mg archaeosome)” value in data set [1] was 35.0 μg antigen/mg archaeosome and 22.0 μg antigen/mg archaeosome. In addition, the “antibody response to OVA in serum” value with anti OVA antibody (IgG) was “strong antibody response”. Also, the “archaeosome vesicle formation / hydrating ability” value in data set [2] is “excellent hydrating ability”. The “adjuvant activity and CD8+ T cell response, archaeol from H. salinarum versus H. volcanii” value in the data set with EL-4+TRP target cells is “equally effective”. Further, in data set [3] (12 weeks storage), the “Average Diameter (nm) 12 weeks” value was 176 nm. The “Average Diameter (nm) 20 weeks” value in data set [3] (20 weeks storage) turned out to be 168 nm. For the same compound, the “Average Diameter (nm) At first injection” value in data set [3] (at first injection) is 172 nm and 168 nm. Further, in the data set with CD8^+ T cell response, the “CD8+ T cell response, frequency of IFN-γ-secreting splenic cells (Elispot)” value is listed as “highest response”.

Consider `CC(C)CCCC(C)CCCC(C)CCCC(C)CCOCC(CO[C@@H]1O[C@H](CO)[C@@H](O[C@@H]2O[C@H](COS(=O)(=O)O)[C@H](OS(=O)(=O)O)[C@H](O)[C@H]2O)[C@H](O)[C@H]1O)OCCC(C)CCCC(C)CCCC(C)CCCC(C)C` (stereo partly drawn) [di-sulfated LA, 4′-6′-disulfate-β-D-Galp-(1,4)-β-D-Glcp-(1,1)-archaeol], for which, in the data set with anti OVA antibody (IgG), the “antibody response to OVA in serum” value is “strong antibody response”.

Regarding `CC(C)CCC[C@@H](C)CCC[C@@H](C)CCC[C@@H](C)CCOC[C@@H](CO[C@@H]1O[C@H](CO)[C@@H](O[C@@H]2O[C@H](CO)[C@H](O)[C@H](O)[C@H]2O)[C@H](O)[C@H]1O)OCC[C@H](C)CCC[C@H](C)CCC[C@H](C)CCCC(C)C` [LA, lactosylarchaeol], the “archaeosome vesicle formation / hydrating ability” value in data set [2] is given as “did not hydrate well”; in data set [2] (listed as lactosylarchaeol) it was “did not form”.

For `CC(C)CCCC(C)CCCC(C)CCCC(C)CCOCC(CO[C@@H]1O[C@H](CO)[C@@H](O[C@@H]2O[C@H](CO[C@@H]3O[C@H](COS(=O)(=O)O)[C@@H](O)[C@H](O)[C@H]3O)[C@H](O)[C@H](O)[C@H]2O)[C@H](O)[C@H]1O)OCCC(C)CCCC(C)CCCC(C)CCCC(C)C` (stereo partly drawn) [sulfated-trisaccharide archaeol, 6′-sulfated β-D-Glcp-(1,6)-β-D-Galp-(1,4)-β-D-Glcp-(1,1)-archaeol], the “antibody response to OVA in serum” value in the data set on anti OVA antibody (IgG) is reported as “strong antibody response”.

In the case of `CC(C)CCCC(C)CCCC(C)CCCC(C)CCOCC(CO[C@@H]1O[C@H](CO[C@@H]2O[C@H](CO[C@@H]3O[C@H](CO)[C@@H](O)[C@H](O)[C@H]3O)[C@@H](O)[C@H](O)[C@H]2O)[C@@H](O)[C@H](O)[C@H]1O)OCCC(C)CCCC(C)CCCC(C)CCCC(C)C` (stereo partly drawn) [Glc3A, β-Glcp-(1,6)-β-Glcp-(1,6)-β-D-Glcp-(1,1)-archaeol], in data set [2], the “archaeosome vesicle formation / hydrating ability” value is listed as “did not form”.
